Results on 38 compounds are retold here after ChEMBL document CHEMBL3259683, “Carbonic anhydrase inhibitors. Inhibition of human cytosolic isoforms I and II with (reduced) Schiff's bases incorporating sulfonamide, carboxylate and carboxymethyl moieties” (Bioorg Med Chem, 2014).

Series [1] has as its target Carbonic anhydrase 2 (Homo sapiens, UniProt P00918). Description: Inhibition of human carbonic anhydrase 2-catalyzed CO2 hydration preincubated for 10 mins by stopped-flow assay.
In series [2] the target is Carbonic anhydrase 1 (Homo sapiens, UniProt P00915). The series is described as follows: Inhibition of human carbonic anhydrase 1-catalyzed CO2 hydration preincubated for 10 mins by stopped-flow assay.
The nature of series [3]: Solubility of the compound in water. It is filed as physicochemical. The settings on record: buffer.
The species named for series [4] is Homo sapiens. The series is described as follows: Selectivity ratio of Ki for human carbonic anhydrase 2 to Ki for human carbonic anhydrase 1.

Sequence of Carbonic anhydrase 1 (P00915 whole entry): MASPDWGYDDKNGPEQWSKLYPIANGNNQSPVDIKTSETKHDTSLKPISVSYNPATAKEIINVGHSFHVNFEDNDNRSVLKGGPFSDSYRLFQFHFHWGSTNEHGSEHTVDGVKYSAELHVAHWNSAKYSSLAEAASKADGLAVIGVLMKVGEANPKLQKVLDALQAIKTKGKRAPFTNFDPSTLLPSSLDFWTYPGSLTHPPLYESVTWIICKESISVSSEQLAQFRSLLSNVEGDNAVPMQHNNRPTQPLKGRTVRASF

As to `COc1ccc(O)c(/C=N/CCc2ccc(S(N)(=O)=O)cc2)c1`, the Ki amounted to 12.6 nM in series [1] and 70 nM in series [2]. Besides, the solubility result in series [3] is reported as “soluble”.

For `CC(C)(C)c1ccc(CNc2ccc(C(=O)O)cc2)cc1`, in series [2], the affinity corresponds to a Ki of 266 nM. Also, the solubility result in series [3] is listed as “soluble”.

As to `COC(=O)c1ccc(NCc2cc(OC)ccc2O)cc1`, the Ratio Ki in series [4] was 23. In addition, in series [2], the affinity, expressed as Ki, was 228 nM. Besides, the solubility entry in series [3] is on record as “soluble”.

Turning to `NS(=O)(=O)c1ccc(CCNCc2ccc(O)cc2)cc1`, the Ki was 236 nM in series [1] and 92.1 nM in series [2]. In addition, in series [3], the solubility entry is reported as “soluble”.

On to `CC(C)(C)c1ccc(CNCCc2ccc(S(N)(=O)=O)cc2)cc1`, for which the Ki turned out to be 8.6 nM in series [1] and 50.3 nM in series [2]. Besides, the solubility result in series [3] is “soluble”.

In series [2], `O=C(O)c1ccc(/N=C/c2ccccc2)cc1` had a Ki of 1230 nM. Further, in series [3], the solubility result is reported as “soluble”.

Consider `O=C(O)c1ccc(/N=C/c2ccc(O)cc2)cc1`, for which the solubility entry in series [3] is reported as “soluble”.

In series [2], `Cl.NS(=O)(=O)c1ccc(C/N=C/c2ccccc2)cc1` came in with a Ki of 93 nM. Moreover, the solubility entry in series [3] was “soluble”.

For `COc1ccc(O)c(CNCCc2ccc(S(N)(=O)=O)cc2)c1`, the results for the Ki in series [1] and in series [2] were 51.5 nM and 56 nM, respectively. In addition, in series [3], the solubility result is “soluble”.

For `CC(C)(C)c1ccc(/C=N/c2ccc(S(N)(=O)=O)cc2)cc1`, the Ki in series [2] came to 85 nM. Besides, the solubility entry in series [3] is reported as “soluble”.

`COc1ccc(O)c(/C=N/c2ccc(S(N)(=O)=O)cc2)c1` returned a Ki in series [2] of 52 nM. Also, the solubility entry in series [3] is on record as “soluble”.

Consider `COc1ccc(O)c(CNc2ccc(C(=O)O)cc2)c1`, for which the Ki in series [2] turned out to be 189 nM. The solubility entry in series [3] is reported as “soluble”.

In series [2], `COc1ccc(O)c(CNc2ccc(S(N)(=O)=O)cc2)c1` returned a Ki of 23.5 nM. Also, the solubility entry in series [3] is given as “soluble”.

Consider `O=C(O)c1ccc(NCc2ccccc2)cc1`, for which, in series [2], the Ki was 56.7 nM. Also, the solubility result in series [3] was “soluble”.

In series [2], `CC(C)(C)c1ccc(CNCc2ccc(S(N)(=O)=O)cc2)cc1.Cl` gave a Ki of 25.5 nM. Besides, in series [3], the solubility result is “soluble”.

In series [2], `COC(=O)c1ccc(/N=C/c2ccc(C(C)(C)C)cc2)cc1` displayed an inhibitory constant (Ki) of 7460 nM. Further, the solubility entry in series [3] was “soluble”.

For the compound `COc1ccc(O)c(/C=N/c2ccc(C(=O)O)cc2)c1`, the inhibition constant Ki in series [2] stood at 1290 nM. The solubility entry in series [3] is recorded as “soluble”.

`Cl.NS(=O)(=O)c1ccc(CNCc2ccc(O)cc2)cc1` gave a Ki in series [2] of 59.5 nM. Moreover, the solubility result in series [3] is on record as “soluble”.

`COC(=O)c1ccc(/N=C/c2ccccc2)cc1` had a Ki in series [2] of 8600 nM. In addition, the solubility result in series [3] is reported as “soluble”.

In turn, `COc1ccc(O)c(/C=N/Cc2ccc(S(N)(=O)=O)cc2)c1.Cl` came in with a Ki in series [2] of 92 nM. For the same compound, the solubility result in series [3] was “soluble”.

`Cl.NS(=O)(=O)c1ccc(CNCc2ccccc2)cc1` displayed an inhibition constant Ki in series [2] of 30.3 nM. Also, the solubility entry in series [3] is recorded as “soluble”.

`COC(=O)c1ccc(/N=C/c2cc(OC)ccc2O)cc1`: in series [2], the Ki worked out at 7450 nM. Further, in series [3], the solubility entry is reported as “soluble”.

In turn, `COC(=O)c1ccc(/N=C/c2ccc(O)cc2)cc1` came in with a Ki in series [2] of 1040 nM. Moreover, in series [3], the solubility entry is on record as “soluble”.

`COC(=O)c1ccc(NCc2ccc(O)cc2)cc1` gave a Ki in series [2] of 209 nM. In addition, the solubility entry in series [3] is given as “soluble”.

In the case of `NS(=O)(=O)c1ccc(CC/N=C/c2ccc(O)cc2)cc1`, the figures for the Ki in series [1] and in series [2] were 43 nM and 105 nM, respectively. Also, in series [3], the solubility entry is reported as “soluble”.

Consider `NS(=O)(=O)c1ccc(/N=C/c2ccc(O)cc2)cc1`, for which the inhibition constant Ki in series [1] amounted to 11.1 nM; in series [2] it was 80 nM. In series [3], the solubility result was “soluble”.

In series [2], `CC(C)(C)c1ccc(/C=N/Cc2ccc(S(N)(=O)=O)cc2)cc1.Cl` yielded a Ki of 72 nM. Further, in series [3], the solubility result is listed as “soluble”.

With `NS(=O)(=O)c1ccc(NCc2ccc(O)cc2)cc1`, the values for the Ki in series [1] and in series [2] were 702 nM and 29 nM, respectively. Moreover, the solubility result in series [3] is on record as “soluble”.

As for `COC(=O)c1ccc(NCc2ccccc2)cc1`, the Ratio Ki in series [4] worked out at 111. In addition, the affinity in series [2] corresponds to a Ki of 200 nM. In series [3], the solubility entry is given as “soluble”.

In series [2], `O=C(O)c1ccc(NCc2ccc(O)cc2)cc1` had a Ki of 116 nM. Further, the solubility result in series [3] is given as “soluble”.

Take `COC(=O)c1ccc(NCc2ccc(C(C)(C)C)cc2)cc1`: the affinity in series [2], expressed as Ki, was 251 nM. Besides, in series [3], the solubility result is on record as “soluble”.

The compound `CC(C)(C)c1ccc(CNc2ccc(S(N)(=O)=O)cc2)cc1` returned an inhibitory constant (Ki) in series [2] of 18.7 nM. Moreover, the solubility entry in series [3] is given as “soluble”.

In the case of `CC(C)(C)c1ccc(/C=N/c2ccc(C(=O)O)cc2)cc1`, the inhibition constant Ki in series [2] turned out to be 8270 nM. For the same compound, the solubility result in series [3] is “soluble”.

As to `CC(C)(C)c1ccc(/C=N/CCc2ccc(S(N)(=O)=O)cc2)cc1`, the Ki was 11.2 nM in series [1] and 665 nM in series [2]. Besides, the solubility result in series [3] is “soluble”.

In series [2], `COc1ccc(O)c(CNCc2ccc(S(N)(=O)=O)cc2)c1.Cl` displayed an inhibitory constant (Ki) of 51.9 nM. Further, the solubility entry in series [3] is on record as “soluble”.

Consider `NS(=O)(=O)c1ccc(CC/N=C/c2ccccc2)cc1`, for which the solubility entry in series [3] was “soluble”.

Consider `NS(=O)(=O)c1ccc(/N=C/c2ccccc2)cc1`, for which affinity in series [2] was put at a Ki of 311 nM. In addition, in series [3], the solubility entry was “soluble”.

As for `NS(=O)(=O)c1ccc(CCNCc2ccccc2)cc1`, the solubility result in series [3] was “soluble”.

By Ki is commonly meant the equilibrium dissociation constant of an inhibitor or competing ligand from its target. Low values mean a stronger hold on the target, high ones a looser hold on the target.
